For data set [1], the system named is human red blood cells (hRBCs). Kind of data set: Hemolytic activity assay (MHC). The following applies: 1% final hRBCs in PBS (70 μL of 2% + 70 μL peptide), 37 °C, 2 h, absorbance 578 nm. The format is cell-based. The method, then:
Peptide samples were serially diluted with phosphate-buffered saline (PBS) and added to 96-well plates (round bottom) with 70 μL per well. Healthy human red blood cells (hRBCs) were collected using an anticoagulation tube with EDTAK2 and centrifuged at 1,000 rpm for 5 min. The erythrocytes were washed three times, resuspended in PBS, and then diluted to a concentration of 2% in PBS. A total of 70 μL of 2% erythrocytes was added to each well and incubated at 37 °C for 2 h. The plates were centrifuged for 10 min at 3,000 rpm and the supernatant was transferred to a 96-well plate (flat bottom). The release of hemoglobin was determined by measuring the absorbance of the supernatant at 578 nm. The hemolytic activity was determined as the minimal peptide concentration that caused hemolysis [minimal hemolytic concentration (MHC)]. Erythrocytes in PBS and distilled water were used as the control of 0% and 100% hemolysis, respectively.

In the next data set the test system is bacteria. The following applies: text summary of Table 1, strain not specified. The method, then:
Minimal inhibitory concentrations (MICs) were used to represent the antimicrobial activity of MAPs and were determined by the standard microtiter dilution method. Four bacterial strains including two gram-negative bacterial strains of E. coli and P. aeruginosa, and two gram-positive bacterial strains of S. aureus and S. epidermidis were selected as representative prokaryotes. A single bacterial colony was picked and cultured in Mueller–Hinton (MH) medium for 18–20 h. The bacterial solution was diluted in the same medium for a final inoculum of 5 × 10^5 colony-forming units (CFU)/mL and placed in 96-well plates with 90 μL per well. Then, 10 μL of peptides was added. MICs were determined as the lowest peptide concentration that inhibited bacterial growth after incubation for 24 h at 37 °C. All assays were repeated in triplicate. GM is the geometric mean of MIC values from two gram-positive bacteria strains or two gram-negative bacteria strains in this table.

Take `CC[C@H](C)[C@H](NC(=O)[C@H](C)NC(=O)[C@H](CCCCN)NC(=O)[C@H](CC(C)C)NC(=O)[C@H](C)NC(=O)[C@@H](NC(=O)[C@H](Cc1cnc[nH]1)NC(=O)[C@H](CC(C)C)NC(=O)[C@@H](NC(=O)[C@@H](NC(=O)[C@H](CCCCN)NC(=O)[C@H](CCCCN)NC(=O)[C@H](C)NC(=O)[C@H](CO)NC(=O)[C@H](CCCCN)NC(=O)[C@H](Cc1ccccc1)NC(=O)[C@@H](NC(=O)[C@H](CCCCN)NC(=O)[C@H](CC(C)C)NC(=O)[C@H](Cc1ccccc1)NC(=O)[C@H](CO)NC(=O)[C@H](CCCCN)NC(=O)[C@H](Cc1c[nH]c2ccccc12)NC(=O)[C@H](CCCCN)NC(C)=O)[C@@H](C)O)[C@@H](C)O)C(C)C)[C@@H](C)O)C(=O)N[C@@H](CO)C(=O)N[C@@H](CO)C(N)=O` [Peptide V13K]: the “MHC (minimal hemolytic concentration)” value in data set [1] came to 250 µM.

As for “Ac-KWKSFAKTFKSAKKTVAHTALKAISS-NH2 [L6A/L17A]”, the MIC value result against bacteria is “approximately 125 μM”.

The record behind these values is publication PMC4929710, “Specificity and mechanism of action of alpha-helical membrane-active peptides interacting with model and biological membranes by single-molecule force spectroscopy” (Scientific Reports, 2016).
